# Experimental data as given in patent publication US20230201221A1, “USE OF TERPENOIDS IN THE TREATMENT OR PREVENTION OF FIBROTIC DISEASES” (ARJIL BIOTECH HOLDING COMPANY LIMITED, priority 2020, published 2023).
# Experiments:
# Format in all cases: in vivo
# [1] = test system: ICR mice; assay: Bleomycin-induced pulmonary fibrosis in mice: lung hydroxyproline content; conditions: extract 1.0 g/kg; AH, BH, DH 50 mg/kg; p<0.001
# Description: (§1) Mice were divided into fifth groups with 5 animals per group according to body weight: control group, BLM group, BLM+DEX group (7.5 mg/kg), BLM+ACH dosage group (50 mg/kg), and BLM+ACM dosage group (25 mg/kg), BLM+ACH dosage group (50 mg/kg), and BLM+ACM dosage group (25 mg/kg) BLM+AH dosage group (50 mg/kg), and BLM+AM dosage group (25 mg/kg) BLM+BH dosage group (50 mg/kg), and BLM+BM dosage group (25 mg/kg) BLM+CH dosage group (50 mg/kg), and BLM+CM dosage group (25 mg/kg) BLM+DH dosage group (50 mg/kg), and BLM+DM dosage group (25 mg/kg) BLM+EH dosage group (50 mg/kg), and BLM+EM dosage group (25 mg/kg) BLM. Pulmonary fibrosis (PF) was established in mice via a single intratracheal administration of BLM at 7.5 mg/kg mg/kg body weight. Different doses of samples were intragastrically administered daily for 21 days after BLM injury, and DEX was used as the positive control. Control and model groups received an equal volume of vehicle (0.9% NaCl) using the same schedule and route of administration.
# The contents of hydroxyproline were analyzed in lung tissue following the instruction of hydroxyproline assay kit (Biosource International Inc., Sunnyvale, Calif., USA). The pulmonary tissues of mice were ground and homogenized with 1 ml of 6 mol/L […] solution, hydrolyzed at 95° C. for 5 hours, and the pH value was adjusted to 6.0-6.8. According to the instructions, the corresponding reagents were added to the reaction system and mixed thoroughly and then incubated for 15 minutes at 60° C. After cooling, the supernatants were collected after centrifuging at 3500 rpm for 10 minutes. The absorbance value of the supernatant from the samples was measured at 550 nm by a spectrophotometer and calculated for the contents of hydroxyproline on each group.
# [2] = test system: TNF-α, IL-1β, IL-6 and TGF-β; assay: Cisplatin-induced renal injury in mice: serum pro-inflammatory cytokines by ELISA; conditions: extract at 1000 mg/kg; after cisplatin challenge
# Description: (§2) TNF-α, IL-6, and IL-1β cytokines in serum The serum concentration of the pro-inflammatory cytokines (i.e. tumor necrosis factor-α (TNF-α), interleukin-6 (IL-6), and IL-1β) in serum are assessed with relevant enzyme-linked immunosorbent assay (ELISA) kits (Biosource International Inc., Sunnyvale, Calif., USA), based on the manufacturer's instructions.
# (§3) Seven-to-eight-week-old male C57BL/6 mice are obtained from the BioLASCO Taiwan Co., Ltd. (Taipei, Taiwan). The animals are housed in Plexiglas cages at a constant temperature of 22±1° C. and a relative humidity of 55±5% on a 12 h dark-light cycle for at least 2 weeks before the experiment. Animals are provided food and water ad libitum. All experimental procedures are performed according to the guidelines of the Institutional Animal Ethics Committee, and the protocol is approved by the Committee for the Purpose of Control and Supervision of Experiments on Animals.
# Renal fibrosis is induced via multiple injections of low-dose cisplatin. Intraperitoneal injections of cisplatin (5 mg/kg/injection; P4394, Sigma-Aldrich, St Louis, Mo.) are performed at 0, 1, and 3 weeks, for a total of 3 injections. Mice are sacrificed at 6 weeks after the first dose of cisplatin (n=6). […]
# [3] = test system: C57BL/6 mice; assay: Cisplatin-induced renal injury in mice: serum CRE and BUN; conditions: extracts at 1000 mg/kg; compared to cisplatin-stimulated group, p<0.001
# Description: Determination of biochemical parameters Serum creatinine and serum urea are assessed using colorimetric kits according to manufacturer's instructions. Kits of the former markers are purchased from (HUMAN Diagnostics Worldwide, Magdeburg, Germany) with a chemical analyzer (Roche Diagnostics, Cobas Mira Plus, Rotkreuz, Switzerland).
# as §3
# Renal fibrosis is induced via multiple injections of low-dose cisplatin. Intraperitoneal injections of cisplatin (5 mg/kg/injection; P4394, Sigma-Aldrich, St Louis, Mo.) are performed at 0, 1, and 3 weeks, for a total of 3 injections. Mice are sacrificed at 6 weeks after the first dose of cisplatin (n=6). To analyze the effects of samples, mice are given daily intraperitoneal injections for 7 days, starting from 4 weeks after first dose of cisplatin, and sacrificed at […] (n=6).
# [4] = test system: TNF-α, IL-1β, IL-6 and TGF-β; assay: Bleomycin-induced pulmonary fibrosis in mice: pro-inflammatory cytokines by ELISA; conditions: extract 1.0 g/kg; BH, DH 50 mg/kg; after BLM challenge; p<0.001
# Description: as §1, with “administration. […]” for “administration.”
# as §2, with “The” for “TNF-α, IL-6, and IL-1β cytokines in serum The”, “were” for “are”
# [5] = test system: BALB/c mice; assay: Con A (concanavalin A) induced acute hepatitis in BALB/c mice; conditions: mean ± SEM
# Description: Male BALB/c mice (7-9 weeks old) were purchased from BioLASCO Taiwan Co., Ltd or National Laboratory Animal Center (NLAC, Taiwan). Animals are housed five per cage with food and water provided ad libitum throughout the experiments. Room temperature is maintained at 23±2° C. with an alternating 12 h light dark cycle. Animals are acclimatized for one week to minimize the effect of stress before the experiments. All experimental protocols involving animals and their care are approved by the Institutional Animal Care and Use Committee (IACUC) in ITRI (ITRI-IACUC-2018-041 and ITRI-IACUC-2018-050; accredited by AAALAC) and are carried out according to the regulations of the Council of Agriculture, Taiwan.
# Con A is dissolved in pyrogen free saline at a concentration of 3 mg/mL and intravenously injected at a dose of 15 mg/kg or 20 mg/kg of body weight to induce hepatitis. […] Blood and liver tissues are collected 24 h after Con A treatment (FIG. 11). Serum are stored at […] until analysis.
# To assess the level of hepatocellular injury after Con A treatment, serum GPT and GOT levels are measured by Fuji Dri-Chem slides (Fuji, Japan). The serum of the same group is pooled for cytokine assay. Cytokine levels are measured by ProcartaPlex™ immunoassays kit according to manufacturer's instructions. Data are presented as mean f SEM. T test is used to analyze the differences between drug and vehicle treated groups. The difference is regarded statistically significant when p value is less than 0.05.
# Liver tissues are fixed in 10% phosphate buffered formaldehyde, embedded in paraffin, and stained with hematoxylin and eosin (H&E) in order to confirm tissue lesions. Tissue lesions are examined microscopically by a veterinary pathologist at BioLASCO Taiwan Co., Ltd. The criteria of severity grading system for all microscopic lesions are graded from 0 to 4 as follows: 0=none; 1=individual cell necrosis; 2=≤30% lobular necrosis; 3=≤60% lobular necrosis; 4=>60% lobular necrosis.
smiles,measurement,setting,value
"C=C1C(=O)O[C@H]2/C=C(\C)CC3C=C(CC/C=C(\C)CC[C@H]12)C(=O)O3 (stereo partly shown) [AR100-DS1, Ovatodiolide]",hydroxyproline (HP) content in lung tissue,[1],reduced lung HP
same,"NO, TNF-α, IL-1β, and IL-6 production in serum",[2],"improved NO, TNF-α, IL-1β, and IL-6 production"
same,renal protection: normalization of serum CRE and BUN,[3],significant renal protection effect
same,"TNF-α, IL-1β, IL-6 and TGF-β production",[4],"improved TNF-α, IL-1β, IL-6 and TGF-β production"
same,serum GPT level,"[5]; 50 mg/kg oral, 24 h after 15 mg/kg Con A, vehicle 368±107, p<0.05",109±25 U/L
same,serum GOT level,"[5]; 50 mg/kg oral, 24 h after 15 mg/kg Con A, vehicle 410±56",261±45 U/L
same,liver necrosis histopathological score,"[5]; graded 0 to 4, 24 h after Con A, vehicle 1.4±0.2",0.2±0.2
